Results on two compounds are retold here after patent US20100272811A1 (priority 2008, published 2010).

Read-outs that look alike come from different tables or passages of the source.

The conditions of data set [1]: background statement; cited from earlier work.
A short description of data set [2]: Pharmacokinetic profile of trospium powder formulations administered to rats via insufflation. The format is in vivo, Sprague-Dawley rats. The note with it: rat, intratracheal insufflation, approx. 200 μg trospium, plasma, mean ± standard error. As to the method:
Male Sprague-Dawley rats (weight 400±50 grams) were administered various powder formulations of trospium by insufflation. The rats were divided into four groups of four rats as follows: • Group A—Insufflated intratracheally with Leucine/Trospium/DPPC containing approximately 200 μg Trospium • Group B—Insufflated intratracheally with Leucine/Trospium/NaSaccharin containing approximately 200 μg Trospium • Group C—Insufflated intratracheally with Leucine/Citrate/NaSaccharin/Trospium containing approximately 200 μg Trospium • Group D—Insufflated intratracheally with Leucine/Trospium containing approximately 200 μg Trospium The formulations tested are described in Table 2.
Rats were anesthetized using inhaled Isofluorane. Drug powder was then intratracheally insufflated into each rat. All animals were allowed food and water ad libitum between blood collection time points. Blood samples were collected by a lateral tail vein after anesthesia. A syringe without an anticoagulant was used for blood collection and the whole blood was transferred to tubes containing K2 EDTA (MIRCOTAINER®; MFG# BD365974). The blood samples were processed (the tubes are inverted 15-20 times and centrifuged for 2 minutes at >14,000 g's to separate plasma). The plasma samples prepared in this manner were transferred to labeled plain tubes (MICROTAINER®; MFG# BD5962) and stored frozen at <−70° C. 250 ul of whole blood was obtained for each time point. Sample collection times were pre-insufflation, 2.5, 5.0, 7.5, 10, 15, 30, 60 and 120 minutes after insufflation.
Plasma samples were analyzed for trospium using an Ionspray LC/MS/MS (Liquid Chromatography coupled with Mass Spectrometery). Briefly, 100 ul of standard (trospium standard solutions in rat plasma), control or test samples were added to the wells of a 96-well plate. The trospium standard solutions were prepared by adding 100 ul of 1 ug/ml trospium chloride (in methanol) with rat plasma to yield a nominal concentration of 4000 pg/ml. Standard solutions in rat plasma were prepared as follows:
Controls were prepared by adding 1 ug/ml trospium chloride in methanol to rat plasma to yield concentrations of 2500 pg/ml, 800 pg/ml and 200 pg/ml of internal standard solution (2.5 ng/ml clidinium bromide in water) were added to all wells except those containing blank plasma samples. 20 ul of 50 mM ammonium acetate (pH 9.0) solution and 350 ul acetonitrile were added to all wells and the plate was shaken on an orbital shaker for 1-2 minutes. The plate was centrifuged at 2000×g for 5-7 minutes. The supernatant was removed added onto an Agilent 96-well plate and concentrated to dryness using a Speed Vacuum. The dry sample were then reconstituted with 100 ul of 50:50 methanol:water and analyzed by LC/MS/MS.
Quantitation was performed using a weighted (1/×) linear regression analysis generated from standard samples.

Usually AUC stands for the area under the concentration-time curve, a measure of exposure. For orientation: Cmax means the maximum level reached in the sampled fluid or tissue. One may read the Tmax as the time at which the peak concentration occurs. `O=C(O[C@H]1C[C@H]2CC[C@@H](C1)[N+]21CCCC1)C(O)(c1ccccc1)c1ccccc1` [Trospium chloride, endo-3-[(hydroxydiphenyl-acetyl)oxy]spiro[8-azoniabicyclo[3.2.1]octane-8,-1′-pyrrolidinium]chloride, reference compound]: the aqueous solubility entry in data set [1] was “relatively high”. Besides, the AUC in data set [2] (male, Sprague-Dawley, inhaled or intranasal, 200 ug, read-out: AUC (converted)) was 24.9 ng·h/mL. Also, in data set [2] (male, Sprague-Dawley, inhaled or intranasal, 200 ug, read-out: Cmax), the maximum concentration (Cmax) was found to be 71.2 ± 6.26 ng/mL. The Tmax in data set [2] (male, Sprague-Dawley, inhaled or intranasal, 200 ug, read-out: Tmax (converted)) was 6.31 min.
Take `O=C(OC1C[C@H]2CC[C@@H](C1)[N+]21CCCC1)C(O)(c1ccccc1)c1ccccc1.O=C1NS(=O)(=O)c2ccccc21` (stereo partly drawn) [Trospium saccharin complex]: in data set [2], the exposure (AUC) was 18.37 ± 1.28 ng·h/mL, the Cmax stood at 43.50 ± 5.32 ng/mL and the time to peak (Tmax) worked out at 9.38 ± 1.40 min. Also, the solubility entry (30% ethanol with inline heating at 55° C.) is recorded as “greater than 4 mg/ml”. Besides, the soluble in water entry (water at room temperature) is “less than 0.4 mg/ml”.
